# Laboratory results taken from patent US20220151995A1, “PHARMACEUTICAL COMPOSITION FOR TREATING CANCER AND SUPPRESSING METASTASIS, CONTAINING SULFONAMIDE-BASED COMPOUND AS ACTIVE INGREDIENT” (EXOSTEMTECH CO., LTD, priority 2015, published 2022).
# How the values were obtained:
# A549 cells = assay: Cancer cell proliferation, WST-1 assay; format: cell-based; details: 100 μM and 200 μM daily, 72 hours; compared to control (DMSO)
# Procedure: A549 cells were seeded in a 12-well plate at a concentration of 3×10^4 cells/well and then stabilized with growth medium for 24 hours. To evaluate cancer cell growth inhibition, SFX was treated daily at different concentrations (0, 100, 200 μM). After 72 hours, cell growth rate was determined by WST-1 assay (FIG. 13).
# A549 = assay: Cancer exosome secretion, number of exosomes by Nanosight; format: cell-based; details: SFX 100 μM and 200 μM, one day; compared to control (DMSO)
# Procedure: After seeding 2×10^6 cells of A549 in T-flask, they were stabilized with growth medium for 24 hours. To isolate cancer exosomes, T-flask was treated with SFX at different concentrations (0, 100, 200 μM), and then lung cancer cells were cultured for one day. After the cell culture medium was collected and filtered, exosomes were separated through ultracentrifugation, and the number of exosomes was determined with Nanosight (FIG. 11).
# [1] = tested on: MDA-MB231-CD63-GFP(+) cells; assay: Exosome (CD63-GFP) secretion screening of FDA-approved drugs, supernatant fluorescence; format: cell-based; details: 24 h, fluorescence 485/538 nm, % of control group, read-out: exosome inhibition rate (relative fluorescence, of control group)
# Procedure: Among a total of 1,163 FDA-approved drug libraries, drugs effective in inhibiting exosome secretion of the MDA-MB231 triple negative breast cancer cell line were selected by carrying out screening twice. Sulfisoxazole, Sulfadiazine, Sulfathiazole and Ambrisentan, all of which are ETA receptor antagonists, were selected.
# The percentage of inhibition rate of exosome secretion was evaluated for each of the selected ETA receptor antagonists. Briefly, MDA-MB231-CD63-GFP(+) cells were incubated with 30 pM of 1,163 individual FDA-approved drugs for 24 h. The fluorescence of each supernatant was measured at 485 nm (excitation) and 538 nm (emission) using a fluorescence microplate reader. Y-axis indicates the inhibition rate of exosome (CD63-GFP), and X-axis indicates the number of FDA-approved drugs.
# MDA-MB231 cells [2] = assay: Matrigel invasion assay; format: cell-based; details: 25, 50, 100 and 200 μM, 48 hours, compared with the controls
# Procedure: A 8[…] insert was placed in a 24-well plate, coated with serum-free medium and Matrigel, and then solidified at 37 for 4 hours. Then, 800µ1 of 10% FBS was added to the lower chamber and 1×10^4 MDA-MB231 cells were added to the upper chamber, followed by treatment with sulfisoxazole or sulfadoxine at 25, 50, 100, and 200µM. After 48 hours, the Matrigel in the insert was removed, followed by washing with PBS, and then the lower chamber was fixed with 60% ethanol, and then stained with crystal violet.
# MDA-MB231 cells [3] = assay: Cancer cell migration, scratch assay (T-scratch); format: cell-based; details: 24 hours, medium containing 2% serum; T-scratch quantification
# Procedure: MDA-MB231 cells were seeded in a 24-well plate at 2×10^5 cells/well, and then incubated for 24 hours for the proliferation to a monolayer. After the incubation for 24 hours, the monolayer was straightly scratched with a yellow tip. The cells were washed with PBS to remove floating cells, and then photographed (0 h). Thereafter, a drug was added to a medium containing 2% serum, and then the cells were treated with the medium, and then incubated for 24 hours (24 h). After 24 hours, the cells were photographed for the same site to compare cell migration. The measurement of cell migration was carried out using T-scratch program.
# LLC1 tumor cells = tested on: LLC1 tumor cells
# Procedure: The cancer animal models were prepared on the last day acclimatization. C57BL/6 mice used for the production of LLC1 tumor mouse model were used as experimental animals, and after inoculation of LLC1 tumor cells in the mouse thigh at a concentration of 5×10^5 cells/head, SFX was administered from the time when the tumor volume reached 50 mm^3.
# After uniformly mixing the SFX solution prepared for each concentration by vortexing, a sonde for mice was connected to a 1 mL syringe to fill the solution, and 100 μL of the solution was orally administered to each mouse in each group.
# Tumor volume was measured daily. The volume of the tumor was measured using a vernier caliper on the major axis and the minor axis, and the height was calculated as ½ the size of the minor axis.
# [Tumor volume (mm3)=major axis (mm)×minor axis (mm)×½ of the minor axis]
# Mouse body weight was measured every other day from the start of the test, and was measured after oral administration of the drug.
# MDA-MB231 cells [4] = assay: Cancer cell proliferation, MTT assay; format: cell-based; details: 25, 50, 100 and 200 μM; MTT absorbance at 495 nm; compared with the control
# Procedure: After the 12-hour incubation, the cells were treated with sulfisoxazole and sulfadoxine at 25, 50, 100, and 200µM, and then re-treated with the same drugs […]. Thereafter, the cells were treated with MT tetrazolium reagent for each time, and then incubated for […]. After 4 hours, the cell proliferation effect was investigated by measuring the absorbance at 495 nm of reduced MTT formazan (3-(4,5-dimethylthiazol-2-yl)-2,5-diphenyl-tetrazolium bromide). The docetaxel (10µM), which is an anticancer drug currently in use, was used as a control.
Compound,activity at 30 pM [1] [%],invasion of cancer cells (MDA-MB231 cells [2]),migration of cancer cells (MDA-MB231 cells [3]),proliferation of MDA-MB231 cell lines (MDA-MB231 cells [4]),other results
Cc1noc(NS(=O)(=O)c2ccc(N)cc2)c1C [sulfisoxazole],60.8,significantly inhibited,inhibited dependent on the concentration,inhibited dependent on the concentration,"A549 cell growth (A549 cells): inhibited in a concentration-dependent manner; level of cancer exosome secretion (A549): significantly reduced; tumor weight (LLC1 tumor cells; 200 and 400 mg/kg orally, end of the experiment, compared to vehicle group): tendency to decrease; mice that died (survival) (LLC1 tumor cells; oral SFX administration for each concentration): no mice that died; body weight of the animals (LLC1 tumor cells; oral SFX administration, measured every other day): did not show a significant change"
COc1ncnc(NS(=O)(=O)c2ccc(N)cc2)c1OC [sulfadoxine],–,significantly inhibited,inhibited dependent on the concentration,significantly inhibited,–
"COC(c1ccccc1)(c1ccccc1)[C@H](Oc1nc(C)cc(C)n1)C(=O)O [ambrisentan, Ambrisentan]",101,–,–,–,–
"Nc1ccc(S(=O)(=O)Nc2ncccn2)cc1 [sulfadiazine, Sulfadiazine]",89.9,–,–,–,–
"Nc1ccc(S(=O)(=O)Nc2nccs2)cc1 [sulfathiazole, Sulfathiazole]",93.8,–,–,–,–
